For orientation: Cmax means the highest concentration seen after dosing. One may read the Tmax as the time at which the peak concentration occurs.

Series [1] can be described thus: Oral fluid concentration-time course of SCs and metabolites in consumers after smoking self-administration (GC-MS and UHPLC-HRMS). Conditions: for second peak concentration in OF: after the decrease at 3 h.
Details of series [2]: method as in PMID 21871150. As to conditions: oral fluid; after smoking two types of herbal products; cited from earlier work.
[3] abbreviates: female, human, po, 3 mg, peak concentration (Cmax) in OF, consumer smoked JWH-210 3 mg, by UHPLC-HRMS, at 20 min.
Where [4] appears, read: consumer smoked JWH-210 3 mg, UHPLC-HRMS.
[5] abbreviates: female, human, po, 3 mg, second peak concentration (Cmax) in OF, consumer smoked JWH-210 3 mg, UHPLC-HRMS, after 2 h.

Bounds are passed on as bounds.

On to `CCCCCn1cc(C(=O)C2C(C)(C)C2(C)C)c2ccccc21` [UR-144, (1-pentyl-1H-indol-3-yl)(2,2,3,3-tetramethylcyclopropyl)-methanone], for which, in series [1] (consumer smoked UR-144 1 mg), the “time peak from smoking start” value stood at 20 min and the “time to decrease to undetectable values in OF” value is on record as at most 4 h. Moreover, in series [1] (male, human, po, 1 mg, Cmax in OF, consumer smoked UR-144 1 mg, by GC-MS, at 20 min), the Cmax is 7.4 ng/mL. For the same compound, the Cmax in series [1] (male, human, po, 1 mg, Cmax in OF, consumer smoked UR-144 1 mg, by UHPLC-HRMS, at 20 min) came out at 6.81 ng/mL.
Take `CCCCCn1cc(C(=O)c2ccc(CC)c3ccccc23)c2ccccc21` [JWH-210, (4-ethyl-1-naphthalenyl)(1-pentyl-1H-indol-3-yl)-methanone]: the “time after which undetectable in OF” value in series [1] (consumer smoked JWH-210 3 mg) is recorded as 3 h. Also, the Tmax in series [1] (female, human, po, 3 mg) was 20 min. Further, the Cmax was found to be 8.1 ng/mL in series [1] (female, human, po, 3 mg, peak concentration (Cmax) in OF, consumer smoked JWH-210 3 mg, by GC-MS, at 20 min) and 7.3 ng/mL in series [1] (setting [3]).
As for `Cc1ccc(C(=O)c2cn(CCCCCO)c3ccccc23)c2ccccc12` [JWH-122 N-(5-OH), (1-(5-hydroxypentyl)-1H-indol-3-yl)(4-methylnaphthalen-1-yl)-methanone], in series [1] (consumer smoked JWH-122 1 mg, UHPLC-HRMS), the “detection of metabolite in OF” value is “only detected in traces under the LOQ”.
Take `CCc1ccc(C(=O)c2cn(CCCC(C)O)c3ccccc23)c2ccccc12` (centres unmarked) [JWH-210 N-(4-OH), (4-ethylnaphthalen-1-yl)(1-(4-hydroxypentyl)-1H-indol-3-yl)methanone]: the “time of second peak concentration” value in series [1] (setting [4]) is given as 2 h. The Tmax in series [1] (female, human, po, 3 mg) is 20 min. Besides, the peak concentration (Cmax) in series [1] (setting [3]) was determined as 0.29 ng/mL; in series [1] (setting [5]), 0.98 ng/mL.
`CCCCCn1cc(C(=O)c2cccc3ccccc23)c2ccccc21` [JWH-018]: the “time of peak OF concentration” value in series [2] is reported as 20 min.
For `CCc1ccc(C(=O)c2cn(CCCCCO)c3ccccc23)c2ccccc12` [JWH-210 N-(5-OH), (4-ethylnaphthalen-1-yl)(1-(5-hydroxypentyl)-1H-indol-3-yl)methanone], the “time of second peak concentration” value in series [1] (setting [4]) was 2 h. For the same compound, the Tmax in series [1] (female, human, po, 3 mg) was 20 min. The Cmax in series [1] (setting [3]) was determined as 0.66 ng/mL; in series [1] (setting [5]), 0.61 ng/mL.
`CC1(C)C(C(=O)c2cn(CCCCCO)c3ccccc23)C1(C)C` [UR-144 N-(5-OH), [1-(5-hydroxypentyl)-1H-indol-3-yl](2,2,3,3-tetramethylcyclopropyl)-methanone]: in series [1] (consumer smoked UR-144 1 mg, UHPLC-HRMS, all the time-course), the “detection of metabolite in OF” value is reported as “only detected in traces”.
In the case of `Cc1ccc(C(=O)c2cn(CCCC(C)O)c3ccccc23)c2ccccc12` (centres unmarked) [JWH-122 N-(4-OH), (1-(4-hydroxypentyl)-1H-indol-3-yl)(4-methylnaphthalen-1-yl)methanone], in series [1] (consumer smoked JWH-122 1 mg, UHPLC-HRMS, between 10 min and 3 h after smoking), the “concentration range in OF” value lay within 0.29 to 0.36 ng/mL. Also, the concentration at 20 min in series [1] (female, human, po, 1 mg) was 0.29 ng/mL.
Turning to `CCCCCn1cc(C(=O)c2ccc(C)c3ccccc23)c2ccccc21` [JWH-122, (4-methyl-1-naphthalenyl)(1-pentyl-1H-indol-3-yl)-methanone], the “second peak concentration in OF” value was found to be 2.00 ng/mL in series [1] (consumer smoked JWH-122 1 mg, by GC-MS) and 1.60 ng/mL in series [1] (consumer smoked JWH-122 1 mg, by UHPLC-HRMS). In addition, in series [1] (female, human, po, 1 mg), the Tmax was 20 min. The peak concentration (Cmax) in series [1] (female, human, po, 1 mg, peak concentration (Cmax) in OF, consumer smoked JWH-122 1 mg, by GC-MS, at 20 min) was 4 ng/mL; in series [1] (female, human, po, 1 mg, peak concentration (Cmax) in OF, consumer smoked JWH-122 1 mg, by UHPLC-HRMS, at 20 min), 3.14 ng/mL.
